Tests used:
Assay type in all cases: in vivo
Cynodon = test: Pre-emergence test, greenhouse; conditions: Cynodon, 1,0 kg/ha, rated after three weeks vs untreated control
Excerpt: (§1) Lösungsmittel: 5 Gewichtsteile Aceton Emulgator: 1 Gewichtsteil Alkylarylpolyglykolether
(§2) Zur Herstellung einer zweckmäßigen Wirkstoffzubereitung vermischte man 1 Gewichtsteil Wirkstoff mit der angegebenen Menge Lösungsmittel, gab die angegebene Menge Emulgator zu und verdünnte das Konzentrat mit Wasser auf die gewünschte Konzentration.
(§3) Samen der Testpflanzen wurden in normalen Boden ausgesät und nach 24 Stunden mit der Wirkstoffzubereitung begossen. Dabei wurde die Wassermenge pro Flächeneinheit zweckmäßigerweise konstant gehalten. Die Wirkstoffkonzentration in der Zubereitung spielte keine Rolle, entscheidend war nur die Aufwandmenge des Wirkstoffs pro Flächeneinheit. Nach drei Wochen wurde der Schädigungsgrad der Pflanzen bonitiert in % Schädigung im Vergleich zur Entwicklung der unbehandelten Kontrolle. Es bedeuten: • 0 % = keine Wirkung (wie unbehandelte Kontrolle) • 100 % = totale Vernichtung

Stellaria = test: Pre-emergence test, greenhouse; conditions: Stellaria, 1,0 kg/ha, rated after three weeks vs untreated control
Excerpt: as §1, §2, §3

Chenopodium [1] = test: Pre-emergence test, greenhouse; conditions: Chenopodium, 1,0 kg/ha, rated after three weeks vs untreated control
Excerpt: as §1, §2, §3

Datura = test: Pre-emergence test, greenhouse; conditions: Datura, 1,0 kg/ha, rated after three weeks vs untreated control
Excerpt: as §1, §2, §3

Matricaria = test: Pre-emergence test, greenhouse; conditions: Matricaria, 1,0 kg/ha, rated after three weeks vs untreated control
Excerpt: as §1, §2, §3

Portulak = test: Pre-emergence test, greenhouse; conditions: Portulak, 1,0 kg/ha, rated after three weeks vs untreated control
Excerpt: as §1, §2, §3

Weizen = test: Pre-emergence test, greenhouse; conditions: Weizen, 1,0 kg/ha, rated after three weeks vs untreated control
Excerpt: as §1, §2, §3

Baumwolle [2] = test: Pre-emergence test, greenhouse; conditions: Baumwolle, 1,0 kg/ha, rated after three weeks vs untreated control (0 % = no effect, 100 % = total destruction)
Excerpt: as §1, §2, §3

Mais = test: Post-emergence test, greenhouse; conditions: Mais, 0,25 kg/ha, rated after three weeks vs untreated control
Excerpt: as §1, §2
(§4) Mit der Wirkstoffzubereitung spritzte man Testpflanzen, welche eine Höhe von 5 - 15 cm hatten so, daß die jeweils gewünschten Wirkstoffmengen pro Flächeneinheit ausgebracht wurden. Die Konzentration der Spritzbrühe wurde so gewählt, daß in 2000 1 Wasser/ha die jeweils gewünschten Wirkstoffmengen ausgebracht wurden. Nach drei Wochen wurde der Schädigungsgrad der Pflanzen bonitiert in % Schädigung im Vergleich zur Entwicklung der unbehandelten Kontrolle.
(§5) Es bedeuten: • 0 % = keine Wirkung (wie unbehandelte Kontrolle) • 100 % = totale Vernichtung

Poa = test: Post-emergence test, greenhouse; conditions: Poa, 0,25 kg/ha, rated after three weeks vs untreated control
Excerpt: as §1, §2, §4, §5

Chenopodium [3] = test: Post-emergence test, greenhouse; conditions: Chenopodium, 0,25 kg/ha, rated after three weeks vs untreated control
Excerpt: as §1, §2, §4, §5

Echinochloa = test: Post-emergence test, greenhouse; conditions: Echinochloa, 0,25 kg/ha, rated after three weeks vs untreated control
Excerpt: as §1, §2, §4, §5

Sinapis = test: Post-emergence test, greenhouse; conditions: Sinapis, 0,25 kg/ha, rated after three weeks vs untreated control
Excerpt: as §1, §2, §4, §5

Solanum = test: Post-emergence test, greenhouse; conditions: Solanum, 0,25 kg/ha, rated after three weeks vs untreated control
Excerpt: as §1, §2, §4, §5

Baumwolle [4] = test: Post-emergence test, greenhouse; conditions: Baumwolle, 0,25 kg/ha, sprayed on plants 5 - 15 cm high, rated after three weeks vs untreated control (0 % = no effect, 100 % = total destruction)
Excerpt: as §1, §2, §4, §5

`FC(Cl)(Cl)Sn1c(C(F)(F)F)nc2cc(C(F)(F)F)c(Cl)cc21` [Beispiel 13, 1-Dichlorfluormethylsulfenyl-2,5-bis(trifluormethyl)-6-chlorbenzimidazol] was tested, and the “Schädigungsgrad der Pflanzen in % Schädigung” value (Cynodon) was 100%, the “Schädigungsgrad der Pflanzen in % Schädigung” value (Stellaria) was 80% and the “Schädigungsgrad der Pflanzen in % Schädigung” value (Chenopodium [1]) was 100%. For the same compound, the “Schädigungsgrad der Pflanzen in % Schädigung” value (Datura) was 80%, the “Schädigungsgrad der Pflanzen in % Schädigung” value (Matricaria) was 80% and the “Schädigungsgrad der Pflanzen in % Schädigung” value (Portulak) was 100%. The “Schädigungsgrad der Pflanzen in % Schädigung” value (Weizen) was 0%, the “Schädigungsgrad der Pflanzen in % Schädigung” value (Baumwolle [2]) was 0% and the “Schädigungsgrad der Pflanzen in % Schädigung” value (Mais) was 50%. The “Schädigungsgrad der Pflanzen in % Schädigung” value (Poa) was 100%, the “Schädigungsgrad der Pflanzen in % Schädigung” value (Chenopodium [3]) was 100% and the “Schädigungsgrad der Pflanzen in % Schädigung” value (Echinochloa) was 80%. For the same compound, the “Schädigungsgrad der Pflanzen in % Schädigung” value (Sinapis) was 100%, the “Schädigungsgrad der Pflanzen in % Schädigung” value (Solanum) was 100% and the “Schädigungsgrad der Pflanzen in % Schädigung” value (Baumwolle [4]) was 20%.
